# Reference: patent EP4273147A1, “SUBSTITUTED SPIROLACTAMS, SALTS THEREOF AND THEIR USE AS HERBICIDALLY ACTIVE SUBSTANCES” (Bayer Aktiengesellschaft, priority 2022, dated 2023)
# Legend:
# SETVI [1] = experiment: Herbicidal pre-emergence action (Table A5); assay type: in vivo, Setaria viridis; settings: application rate 1280 g/ha; visual grading after ca. 3 weeks
# Procedure, shortened: (§1)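 Two-species sowings per pot, mono- plus dicotyledonous weeds; soil type sandy loam, seed covered after sowing.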
# POAAN [2] = experiment: Herbicidal post-emergence action (Table B7); assay type: in vivo, Poa annua; settings: application rate 1280 g/ha
# Procedure, shortened: (§2)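 Percent herbicidal activity scored visually versus untreated controls, with 100% meaning dead plants. Scoring took place ~3 weeks after post-emergence treatment of one-leaf-stage weeds grown in sandy loam pots in a greenhouse.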
# LOLRI [3] = experiment: Herbicidal pre-emergence action (Table A3); assay type: in vivo, Lolium rigidum; settings: Lolium rigidum, pre-emergence, 504 h, application rate 320 g/ha; visual grading after ca. 3 weeks; read-out: pre-emergence activity against LOLRI
# Procedure, shortened: as §1
# ECHCG [4] = experiment: Herbicidal post-emergence action, section E (Table E5); assay type: in vivo, Echinochloa crus-galli; settings: application rate 320 g/ha; assessed visually after ca. 3 weeks
# Source text: (§3) 2 to 3 weeks after sowing, the test plants were sprayed in the single-leaf stage.
# ALOMY [5] = experiment: Herbicidal post-emergence action (Table B2); assay type: in vivo, Alopecurus myosuroides; settings: application rate 1280 g/ha; rated visually after about 3 weeks
# Procedure, shortened: as §2
# ECHCG [6] = experiment: Herbicidal pre-emergence action, section C (Table C6); assay type: in vivo, Echinochloa crus-galli; settings: application rate 80 g/ha; visual grading after ca. 3 weeks
# VIOTR = experiment: Herbicidal pre-emergence action, section C (Table C12); assay type: in vivo, Viola tricolor; settings: application rate 80 g/ha; visual grading after ca. 3 weeks
# Source text: (§4) Seeds of mono- and dicotyledonous weed plants and crop plants were sown, in plastic or organic planting pots, in sandy loam and covered with soil. The compounds according to the invention, formulated in the form of wettable powders (WP) or as emulsifiable concentrates (EC), were applied to the surface of the covering soil as aqueous suspension or emulsion, with the addition of 0.5% of an additive, at an application rate of 600 1 of water/ha (converted). Following treatment, the pots were placed in a greenhouse and kept under optimum growth conditions for the test plants.
# VERPE [7] = experiment: Herbicidal post-emergence action (Table B10); assay type: in vivo, Veronica persica; settings: application rate 1280 g/ha
# Procedure, shortened: as §2
# ALOMY [8] = experiment: Herbicidal post-emergence action, section E (Table E2); assay type: in vivo, Alopecurus myosuroides; settings: application rate 80 g/ha; assessed visually after ca. 3 weeks
# Source text: as §3
# SETVI [9] = experiment: Herbicidal pre-emergence action, section C (Table C10); assay type: in vivo, Setaria viridis; settings: application rate 80 g/ha; visual grading after ca. 3 weeks
# TRZAS = experiment: Post-emergence effects on crop plants (Table F2); assay type: in vivo, Triticum aestivum; settings: application rate 320 g/ha, crop plant TRZAS
# Source text: as §3
# ORYZA = experiment: Post-emergence effects on crop plants (Table F3); assay type: in vivo, Oryza sativa; settings: application rate 80 g/ha, crop plant ORYZA
# Source text: as §3
# VERPE [10] = experiment: Herbicidal pre-emergence action, section C (Table C11); assay type: in vivo, Veronica persica; settings: application rate 320 g/ha; visual grading after ca. 3 weeks
# POAAN [11] = experiment: Herbicidal pre-emergence action (Table A7); assay type: in vivo, Poa annua; settings: Poa annua, pre-emergence, 504 h; application rate 1280 g/ha; visual grading after ca. 3 weeks; read-out: pre-emergence activity against POAAN
# Procedure, shortened: as §1
# ALOMY [12] = experiment: Herbicidal pre-emergence action (Table A9); assay type: in vivo, Alopecurus myosuroides; settings: application rate 1280 g/ha; visual grading after ca. 3 weeks
# Procedure, shortened: as §1
# ALOMY [13] = experiment: Herbicidal pre-emergence action, section C (Table C2); assay type: in vivo, Alopecurus myosuroides; settings: application rate 320 g/ha; visual grading after ca. 3 weeks
# SETVI [14] = experiment: Herbicidal post-emergence action (Table B8); assay type: in vivo, Setaria viridis; settings: application rate 1280 g/ha
# Procedure, shortened: as §2
# MATIN [15] = experiment: Herbicidal pre-emergence action (Table A4); assay type: in vivo, Matricaria inodora; settings: application rate 320 g/ha; visual grading after ca. 3 weeks
# Procedure, shortened: as §1
# ABUTH [16] = experiment: Herbicidal pre-emergence action, section C (Table C1); assay type: in vivo, Abutilon theophrasti; settings: application rate 320 g/ha; visual grading after ca. 3 weeks
# ECHCG [17] = experiment: Herbicidal pre-emergence action (Table A2); assay type: in vivo, Echinochloa crus-galli; settings: application rate 320 g/ha; visual grading after ca. 3 weeks
# Procedure, shortened: as §1
# MATIN [18] = experiment: Herbicidal pre-emergence action, section C (Table C8); assay type: in vivo, Matricaria inodora; settings: application rate 320 g/ha; visual grading after ca. 3 weeks
# Source text: as §4
# KCHSC = experiment: Herbicidal pre-emergence action (Table A10); assay type: in vivo, Kochia scoparia; settings: application rate 1280 g/ha; visual grading after ca. 3 weeks
# Procedure, shortened: as §1
# BRSNW = experiment: Post-emergence effects on crop plants (Table F5); assay type: in vivo, Brassica napus; settings: application rate 320 g/ha, crop plant BRSNW
# Source text: as §3
# ABUTH [19] = experiment: Herbicidal post-emergence action, section E (Table E1); assay type: in vivo, Abutilon theophrasti; settings: application rate 320 g/ha; assessed visually after ca. 3 weeks
# Source text: as §3
# POLCO = experiment: Herbicidal pre-emergence action, section C (Table C9); assay type: in vivo, Polygonum convolvulus; settings: application rate 320 g/ha; visual grading after ca. 3 weeks
# Source text: as §4
# VERPE [20] = experiment: Herbicidal pre-emergence action (Table A11); assay type: in vivo, Veronica persica; settings: application rate 1280 g/ha; visual grading after ca. 3 weeks
# Procedure, shortened: as §1
# LOLRI [21] = experiment: Herbicidal pre-emergence action, section C (Table C7); assay type: in vivo, Lolium rigidum; settings: application rate 320 g/ha; visual grading after ca. 3 weeks
# SETVI [22] = experiment: Herbicidal post-emergence action, section E (Table E8); assay type: in vivo, Setaria viridis; settings: application rate 320 g/ha; assessed visually after ca. 3 weeks
# Source text: as §3
# ECHCG [23] = experiment: Herbicidal post-emergence action (Table B3); assay type: in vivo, Echinochloa crus-galli; settings: Echinochloa crus-galli, post-emergence, 504 h; application rate 1280 g/ha; rated visually after about 3 weeks; read-out: post-emergence activity against ECHCG
# Procedure, shortened: as §2
# ABUTH [24] = experiment: Herbicidal pre-emergence action (Table A1); assay type: in vivo, Abutilon theophrasti; settings: application rate 1280 g/ha; visual grading after ca. 3 weeks vs untreated controls (100% = plants have died off, 0% = as control plants)
# Procedure, shortened: as §1
compound,measurement,setting,value
"O=C1N(Cc2ccccc2)CCCC12CCCN(Cc1ccccc1F)C2=O (racemic) [I-010, 2-benzyl-8-(2-fluorobenzyl)-2,8-diazaspiro[5.5]undecane-1,7-dione]",pre-emergence activity against SETVI,SETVI [1],90%
same,post-emergence activity against POAAN,POAAN [2],90%
same,pest or weed control at 320 g/ha,LOLRI [3],100%
same,post-emergence activity against ECHCG,ECHCG [4],90%
same,post-emergence activity against ALOMY,ALOMY [5],90%
same,pre-emergence activity against ECHCG,ECHCG [6],100%
same,pre-emergence activity against VIOTR,VIOTR,80%
same,post-emergence activity against VERPE,VERPE [7],90%
same,post-emergence activity against ALOMY,ALOMY [8],80%
same,pre-emergence activity against SETVI,SETVI [9],100%
same,post-emergence activity against TRZAS,TRZAS,0%
same,post-emergence activity against ORYZA,ORYZA,0%
same,pre-emergence activity against VERPE,VERPE [10],80%
same,pest or weed control at 1280 g/ha,POAAN [11],100%
same,pre-emergence activity against ALOMY,ALOMY [12],90%
same,pre-emergence activity against ALOMY,ALOMY [13],100%
same,post-emergence activity against SETVI,SETVI [14],90%
same,pre-emergence activity against MATIN,MATIN [15],90%
same,pre-emergence activity against ABUTH,ABUTH [16],90%
same,pre-emergence activity against ECHCG,ECHCG [17],100%
same,pre-emergence activity against MATIN,MATIN [18],90%
same,pre-emergence activity against KCHSC,KCHSC,90%
same,post-emergence activity against BRSNW,BRSNW,0%
same,post-emergence activity against ABUTH,ABUTH [19],80%
same,pre-emergence activity against POLCO,POLCO,80%
same,pre-emergence activity against VERPE,VERPE [20],90%
same,pre-emergence activity against LOLRI,LOLRI [21],100%
same,post-emergence activity against SETVI,SETVI [22],80%
same,pest or weed control at 1280 g/ha,ECHCG [23],90%
same,pre-emergence activity against ABUTH,ABUTH [24],90%
